This note sets out measurements from ChEMBL document CHEMBL1140870, “Interrogating the mechanism of a tight binding inhibitor of AIR carboxylase” (Bioorg Med Chem, 2009).

Data set [1] has as its target T1, Multifunctional protein ADE2 (Gallus gallus, UniProt P38024).
T1 sequence (P38024 whole entry): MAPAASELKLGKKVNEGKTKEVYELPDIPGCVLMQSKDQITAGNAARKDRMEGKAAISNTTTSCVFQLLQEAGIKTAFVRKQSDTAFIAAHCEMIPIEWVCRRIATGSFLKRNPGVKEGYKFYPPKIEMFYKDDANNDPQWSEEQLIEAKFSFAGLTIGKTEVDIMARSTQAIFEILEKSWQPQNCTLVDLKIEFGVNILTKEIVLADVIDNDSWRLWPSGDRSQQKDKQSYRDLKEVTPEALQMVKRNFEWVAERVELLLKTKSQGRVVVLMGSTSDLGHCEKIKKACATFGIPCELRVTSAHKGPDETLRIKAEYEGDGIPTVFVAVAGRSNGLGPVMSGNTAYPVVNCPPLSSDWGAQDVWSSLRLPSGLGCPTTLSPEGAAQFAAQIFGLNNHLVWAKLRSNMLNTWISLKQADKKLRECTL
As to the kind of experiment: Inhibition of Gallus gallus AIR carboxylase by CAIR decarboxylation assay.

Data set [2] can be described thus: Dissociation constant, pKa of the compound. Type of data set: physicochemical.

Some results are limits rather than exact numbers.

`O=[N+]([O-])c1ccn([C@@H]2O[C@H](COP(=O)(O)O)[C@@H](O)[C@H]2O)c1`: in data set [1], the IC50 (as a rule, the concentration at which inhibition is half-maximal) is above 100000 nM.

Take `Nc1c([N+](=O)[O-])ncn1[C@@H]1O[C@H](COP(=O)(O)O)[C@@H](O)[C@H]1O`: affinity in data set [1] was put at a Ki of 0.34 nM. Further, the pKa (in general, the negative logarithm of the acid dissociation constant) in data set [2] stood at 0.3.

For `O=[N+]([O-])c1cn([C@@H]2O[C@H](COP(=O)(O)O)[C@@H](O)[C@H]2O)cn1`, affinity in data set [1] was put at a Ki of 1300 nM. That is a single-digit micromolar value.

`Nc1c(C(=O)O)nnn1[C@@H]1O[C@H](COP(=O)(O)O)[C@@H](O)[C@H]1O`: affinity in data set [1] was put at a Ki of 2800 nM.

As for `Nc1c(C(=O)O)cnn1[C@@H]1O[C@H](COP(=O)(O)O)[C@@H](O)[C@H]1O`, the Ki (usually the dissociation constant of the complex between target and ligand, obtained from inhibition or displacement) in data set [1] came to 6000 nM.

The molecule `Nc1c(C=O)ncn1[C@@H]1O[C@H](COP(=O)(O)O)[C@@H](O)[C@H]1O` gave a Ki in data set [1] of 62000 nM.

For `O=[N+]([O-])c1cnn([C@@H]2O[C@H](COP(=O)(O)O)[C@@H](O)[C@H]2O)c1`, in data set [1], the Ki was determined as 22000 nM.

In data set [1], `Nc1c([N+](=O)[O-])cnn1[C@@H]1O[C@H](COP(=O)(O)O)[C@@H](O)[C@H]1O` had a Ki of 390 nM.
